16 molecules from ChEMBL document CHEMBL2073748, “Na(+)-dependent carnitine transport by organic cation transporter (OCTN2): its pharmacological and toxicological relevance” (J Pharmacol Exp Ther, 1999) can be followed below.

Starred links: 1 amine or outer side, 2 acyl side, 3 side chain; linkers in the order of their positions; H or OH if unused. Positions of bridges follow the written chain, without caps; N, C: chain ends. Non-standard residues stand in square brackets, D forms with d. Residues, ends and D or L forms follow the SMILES beside them. Chains are numbered I, II in the order given. Actinocin(9to1) = Cc1c2oc3c(C)ccc(C(=O)[*:1])c3nc-2c(C(=O)[*:2])c(N)c1=O; NMeV = CN[C@H](C(=O)O)C(C)C; Sar = CNCC(=O)O

In data set [1] the target is T1, OCTN2 (organic cation/carnitine transporter 2) (Homo sapiens, UniProt O76082).
T1 sequence (O76082 whole entry): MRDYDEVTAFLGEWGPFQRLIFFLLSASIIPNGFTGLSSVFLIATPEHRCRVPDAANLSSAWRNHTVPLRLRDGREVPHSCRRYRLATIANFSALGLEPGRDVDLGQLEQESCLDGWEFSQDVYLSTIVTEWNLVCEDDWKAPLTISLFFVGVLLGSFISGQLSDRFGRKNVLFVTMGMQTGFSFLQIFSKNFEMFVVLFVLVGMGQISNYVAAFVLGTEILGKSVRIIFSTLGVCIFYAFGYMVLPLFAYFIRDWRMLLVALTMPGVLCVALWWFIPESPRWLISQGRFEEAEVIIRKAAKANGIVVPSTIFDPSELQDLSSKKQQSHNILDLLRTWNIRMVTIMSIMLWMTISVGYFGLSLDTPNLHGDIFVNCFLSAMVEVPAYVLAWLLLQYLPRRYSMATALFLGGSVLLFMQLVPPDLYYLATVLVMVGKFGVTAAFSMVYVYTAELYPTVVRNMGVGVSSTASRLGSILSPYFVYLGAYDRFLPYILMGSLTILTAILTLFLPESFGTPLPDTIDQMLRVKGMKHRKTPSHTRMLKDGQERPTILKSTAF
In words: TP_TRANSPORTER: inhibition of Carnitine uptake (Carnitine: 0.010? uM, Actinomycin D: 100 uM) in OCTN2-expressing HEK293 cells. The class given is functional, cell-based. Details: scale not given: the % may be the effect or the level left. The settings on record: HEK293 cells that express OCTN2, probe Carnitine, read-out: Activity.

Data set [2] addresses T2, Organic cation/carnitine transporter 2 (Homo sapiens, UniProt O76082).
T2 sequence (O76082 whole entry): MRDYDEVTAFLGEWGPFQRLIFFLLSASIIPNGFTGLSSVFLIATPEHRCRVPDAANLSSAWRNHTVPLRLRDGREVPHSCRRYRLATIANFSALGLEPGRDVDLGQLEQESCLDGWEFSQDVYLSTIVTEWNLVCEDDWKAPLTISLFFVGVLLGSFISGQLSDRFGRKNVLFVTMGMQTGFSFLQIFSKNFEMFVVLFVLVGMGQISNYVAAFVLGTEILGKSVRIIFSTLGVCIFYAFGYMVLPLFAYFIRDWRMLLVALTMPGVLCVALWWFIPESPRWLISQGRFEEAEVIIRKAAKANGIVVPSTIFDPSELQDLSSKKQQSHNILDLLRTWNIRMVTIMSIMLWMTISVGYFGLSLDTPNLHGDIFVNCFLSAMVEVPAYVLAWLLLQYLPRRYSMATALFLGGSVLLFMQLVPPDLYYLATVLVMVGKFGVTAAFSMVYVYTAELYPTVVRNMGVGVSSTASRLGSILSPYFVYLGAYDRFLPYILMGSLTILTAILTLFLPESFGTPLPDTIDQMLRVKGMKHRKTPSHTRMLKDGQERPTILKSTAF
In words: (§1) TP_TRANSPORTER: uptake in OCTN2-expressing HEK293 cells. The class given is functional, cell-based.

Data set [3] concerns the target T1, OCTN2 (organic cation/carnitine transporter 2). Put plainly: TP_TRANSPORTER: inhibition of Carnitine uptake (Carnitine: 0.010? uM, LFLX: 500 uM) in OCTN2-expressing HEK293 cells. The class given is functional, cell-based. Also noted: scale not given: the % may be the effect or the level left. The settings on record: HEK293 cells that express OCTN2, probe Carnitine, read-out: Activity.

Data set [4] concerns the target T2, Organic cation/carnitine transporter 2. Put plainly: TP_TRANSPORTER: inhibition of Carnitine uptake (Carnitine: 0.010? uM, Creatinine: 500 uM) in OCTN2-expressing HEK293 cells. Type of data set: functional, cell-based. The settings on record: hek293, 500 µM.
Data set [5] has the same target. In words: TP_TRANSPORTER: inhibition of Carnitine uptake (Carnitine: 0.010? uM, Cephalotin: 500 uM) in OCTN2-expressing HEK293 cells. The class given is functional, cell-based. The settings on record: hek293, 500 µM.
Data set [6] has as its target T1, OCTN2 (organic cation/carnitine transporter 2). In words: TP_TRANSPORTER: inhibition of Carnitine uptake (Carnitine: 0.010? uM, Cefsulodin: 500 uM) in OCTN2-expressing HEK293 cells. Type of data set: functional, cell-based. Details: scale not given: the % may be the effect or the level left. The settings on record: HEK293 cells that express OCTN2, probe Carnitine, read-out: Activity.

Data set [7] shares this target. In words: in vitro. As to conditions: HEK293 cells that express OCTN2, probe Carnitine.
For data set [8] the target is unchanged. In words: TP_TRANSPORTER: inhibition of Carnitine uptake (Carnitine: 0.010? uM, Corticosterone: 500 uM) in OCTN2-expressing HEK293 cells. The class given is functional, cell-based. Details: scale not given: the % may be the effect or the level left. The settings on record: HEK293 cells that express OCTN2, probe Carnitine, read-out: Activity.
Data set [9] shares this target. Put plainly: TP_TRANSPORTER: inhibition of Carnitine uptake (Carnitine: 0.010? uM, OFLX: 500 uM) in OCTN2-expressing HEK293 cells. The class given is functional, cell-based. Details: scale not given: the % may be the effect or the level left. As to conditions: HEK293 cells that express OCTN2, probe Carnitine, read-out: Activity.
Data set [10] concerns the target T2, Organic cation/carnitine transporter 2. Put plainly: TP_TRANSPORTER: inhibition of Carnitine uptake (Carnitine: 0.010? uM, Cephaloglycin: 500 uM) in OCTN2-expressing HEK293 cells. Type of data set: functional, cell-based. The settings on record: hek293, 500 µM.
The target in data set [11] is T1, OCTN2 (organic cation/carnitine transporter 2). Put plainly: TP_TRANSPORTER: inhibition of Carnitine uptake (Carnitine: 0.010? uM, Procainamide: 500 uM) in OCTN2-expressing HEK293 cells. The settings on record: HEK293 cells that express OCTN2, probe Carnitine, read-out: Activity. Details: scale not given: the % may be the effect or the level left. Type of data set: functional, cell-based.

Data set [12] shares this target. Put plainly: TP_TRANSPORTER: inhibition of Carnitine uptake (Carnitine: 0.010? uM, Verapamil: 500 uM) in OCTN2-expressing HEK293 cells. The settings on record: HEK293 cells that express OCTN2, probe Carnitine, read-out: Activity. Also noted: scale not given: the % may be the effect or the level left. Type of data set: functional, cell-based.
Data set [13] shares this target. Put plainly: TP_TRANSPORTER: inhibition of Carnitine uptake (Carnitine: 0.010? uM, Quinine: 500 uM) in OCTN2-expressing HEK293 cells. Type of data set: functional, cell-based. Details: scale not given: the % may be the effect or the level left. As to conditions: HEK293 cells that express OCTN2, probe Carnitine, read-out: Activity.
For data set [14], the target named is T2, Organic cation/carnitine transporter 2. In words: TP_TRANSPORTER: inhibition of Carnitine uptake (Carnitine: 0.010? uM, Furosemide: 500 uM) in OCTN2-expressing HEK293 cells. As to conditions: hek293, 500 µM. The class given is functional, cell-based.
Data set [15] has as its target T1, OCTN2 (organic cation/carnitine transporter 2). In words: in vitro. The settings on record: HEK293 cells that express OCTN2, probe Carnitine. The source holds these as a separate data set.
For data set [16] the target is unchanged. Put plainly: TP_TRANSPORTER: inhibition of Carnitine uptake (Carnitine: 0.010? uM, S-methylmethionine sufonium: 500 uM) in OCTN2-expressing HEK293 cells. As to conditions: HEK293 cells that express OCTN2, probe Carnitine, read-out: Activity. Also noted: scale not given: the % may be the effect or the level left. The class given is functional, cell-based.

Substrate in data set [17]: CC(=O)O[C@H](CC(=O)[O-])C[N+](C)(C)C
The description is as §1. Type of data set: functional, cell-based.

Substrate in data set [18]: C[N+](C)(C)CC(O)CC(=O)[O-]
Put plainly: TP_TRANSPORTER: uptake, D-Carnitine in OCTN2-expressing HEK293 cells. The class given is functional, cell-based.

On to `Cc1c2oc3c(C)ccc(C(=O)N[C@@H]4C(=O)N[C@H](C(C)C)C(=O)N5CCC[C@H]5C(=O)N(C)CC(=O)N(C)[C@@H](C(C)C)C(=O)O[C@@H]4C)c3nc-2c(C(=O)N[C@@H]2C(=O)N[C@H](C(C)C)C(=O)N3CCC[C@H]3C(=O)N(C)CC(=O)N(C)[C@@H](C(C)C)C(=O)O[C@@H]2C)c(N)c1=O` [DACTINOMYCIN] (I: T[dV]P[Sar][NMeV] / II: T[dV]P[Sar][NMeV]; ester I:1-I:C, II:1-II:C; linker I:N-II:N via Actinocin(9to1)), for which the activity at 100 µM in data set [1] was determined as 69%. Further, in data set [2], the Activity entry was “is not a substrate [-]”.
Consider `CCn1cc(C(=O)O)c(=O)c2cc(F)c(N3CCNC(C)C3)c(F)c21` (stereo unspecified) [LOMEFLOXACIN], for which, in data set [3], the activity at 500 µM came to 88.6%.
As to `CN1CC(=O)NC1=N` [CREATININE], the Activity entry in data set [4] was “is not an inhibitor [-]”.
As for `CC(=O)OCC1=C(C(=O)O)N2C(=O)[C@@H](NC(=O)Cc3cccs3)[C@H]2SC1` [CEPHALOTHIN], in data set [5], the Activity result was “is not an inhibitor [-]”.
On to `NC(=O)c1cc[n+](CC2=C(C(=O)O)N3C(=O)[C@@H](NC(=O)[C@@H](c4ccccc4)S(=O)(=O)[O-])[C@H]3SC2)cc1` [CEFSULODIN], for which, in [6], the activity at 500 µM is 32.8%.
As for `CC[N+](CC)(CC)CC` [TETRYLAMMONIUM], the Activity result in data set [2] was “substrate [+]”. In data set [7], this molecule displayed an activity at 500 µM of 53.6%.
In the case of `C[C@]12C[C@H](O)[C@H]3[C@@H](CCC4=CC(=O)CC[C@@]43C)[C@@H]1CC[C@@H]2C(=O)CO` [CORTICOSTERONE], the activity at 500 µM in [8] turned out to be 9.3%.
As for `CC1COc2c(N3CCN(C)CC3)c(F)cc3c(=O)c(C(=O)O)cn1c23` (stereo unspecified) [OFLOXACIN], the activity at 500 µM in data set [9] is 76.8%.
As for `CC(=O)OCC1=C(C(=O)O)N2C(=O)[C@@H](NC(=O)[C@H](N)c3ccccc3)[C@H]2SC1` [CEPHALOGLYCIN], the Activity result in data set [10] was “is not an inhibitor [-]”.
In the case of `CCN(CC)CCNC(=O)c1ccc(N)cc1` [PROCAINAMIDE], in [11], the activity at 500 µM amounted to 65.8%.
Consider `COc1ccc(CCN(C)CCCC(C#N)(c2ccc(OC)c(OC)c2)C(C)C)cc1OC` (stereo unspecified) [VERAPAMIL], for which, in data set [12], the activity at 500 µM amounted to 2.4%. In addition, the Activity entry in data set [2] is “substrate [+]”.
On to `C=C[C@H]1C[N@@]2CC[C@H]1C[C@H]2[C@H](O)c1ccnc2ccc(OC)cc12` [QUININE], for which, in data set [13], the activity at 500 µM was found to be 7.1%.
`NS(=O)(=O)c1cc(C(=O)O)c(NCc2ccco2)cc1Cl` [FUROSEMIDE]: the Activity entry in data set [14] is “is not an inhibitor [-]”.
With `CN/C(=N/CCSCc1nc[nH]c1C)NC#N` [CIMETIDINE], the activity at 500 µM in data set [15] worked out at 66.4%. For the same molecule, in [2], the Activity entry was “is not a substrate [-]”.
For the molecule `C[S+](C)CC[C@H](N)C(=O)[O-]`, the activity at 500 µM in data set [16] amounted to 8.7%.

B1: Organic cation/carnitine transporter 2 (Homo sapiens) (protein)
chain: MRDYDEVTAFLGEWGPFQRLIFFLLSASIIPNGFTGLSSVFLIATPEHRCRVPDAANLSSAWRNHTVPLRLRDGREVPHSCRRYRLATIANFSALGLEPGRDVDLGQLEQESCLDGWEFSQDVYLSTIVTEWNLVCEDDWKAPLTISLFFVGVLLGSFISGQLSDRFGRKNVLFVTMGMQTGFSFLQIFSKNFEMFVVLFVLVGMGQISNYVAAFVLGTEILGKSVRIIFSTLGVCIFYAFGYMVLPLFAYFIRDWRMLLVALTMPGVLCVALWWFIPESPRWLISQGRFEEAEVIIRKAAKANGIVVPSTIFDPSELQDLSSKKQQSHNILDLLRTWNIRMVTIMSIMLWMTISVGYFGLSLDTPNLHGDIFVNCFLSAMVEVPAYVLAWLLLQYLPRRYSMATALFLGGSVLLFMQLVPPDLYYLATVLVMVGKFGVTAAFSMVYVYTAELYPTVVRNMGVGVSSTASRLGSILSPYFVYLGAYDRFLPYILMGSLTILTAILTLFLPESFGTPLPDTIDQMLRVKGMKHRKTPSHTRMLKDGQERPTILKSTAF
B1: the figures for the Michaelis constant (Km) in data set [17] and in data set [18] were 8.5 µM and 10.9 µM, respectively.
